Converted amounts (≈) assume the structure as drawn. Where a name gives a salt, the structure may show the parent alone. Read-outs that look alike come from different tables or passages of the source.
Columns and labels:
E. coli K-12 = test: Resistance development on LB-agar plates, combination therapy; details: B1 in combination with anti-LeuS Tavaborole, adjusted for dose equivalence; 10^8 cells plated, 37° C., 24 hours; multiple independent experiments (FIG. 1)
Method: Experimental details: Cultures of E. coli K-12 were started from single colonies on LB-agar plates and were grown in LB for 36 hours with shaking at 37° C. Following that, 10^8 cells were plated on LB-agar plates containing B1 or Tavaborole alone or in combination adjusted for dose equivalence and incubated at 37° C. for 24 hours.

H37RvMA = test: Tuberculosis Alamar Blue/Resazurin assay (MIC); assay type: cell-based; details: Mycobacterium tuberculosis, H37RV, read-out: WT H37Rv MTB Activity
E. coli = test: Gram negative MIC protocol (OD600, LB, 24 h); details: Escherichia coli
Method: (§1) Overnight bacterial cultures were grown in LB with no added antibiotics at 37° C. with shaking. A 1:1000 dilution of these cultures into LB was exposed to concentration gradients of compounds in 96-well plates (100 μL per well assay volume). Resulting plates were incubated at 37° C. for 24 h without shaking, and OD600 was measured at the end of the incubation. MICs were determined as the lowest concentrations at which OD600 remained at baseline.

A. baumannii = test: Gram negative MIC protocol (OD600, LB, 24 h); details: Acinetobacter baumannii
Method: as §1

[1] = read-out: MIC E. coli delta-TolC LB Media, E. coli delta-TolC, LB media, OD600
[2] = read-out: MIC WT E. coli LB Media, WT E. coli, LB media, OD600
[3] = read-out: MIC A. baumannii LB Media, A. baumannii, LB media, 24 h, OD600

| SMILES | development of resistance (E. coli K-12) | MIC (H37RvMA) [µM] | MIC (E. coli; [1]) [µM] | MIC (E. coli; [2]) [µM] | MIC (A. baumannii; read-out: MIC A. baumannii LB Media) [µM] | MIC (H37RvMA; WT H37Rv MTB) [µM] | MIC (A. baumannii; [3]) [µM] |
| --- | --- | --- | --- | --- | --- | --- | --- |
| C1=C(CCNCc2ccccc2)CCCC1 [B1, N-benzyl-2-(cyclohex-1-en-1-yl)ethan-1-amine] | did not develop resistance | > 150 | 46 (≈ 9.91 µg/mL) | 60 (≈ 12.9 µg/mL) | 150 (≈ 32.3 µg/mL) |  |  |
| CC(CC1CCCCC1)NCc1ccccc1CS(=O)(=O)N1CCN(C)CC1 (stereo not drawn) [B439, 1-cyclohexyl-N-(2-(((4-methylpiperazin-1-yl)sulfonyl)methyl)benzyl)propan-2-amine] |  |  | 12 (≈ 4.89 µg/mL) | 91 (≈ 37.1 µg/mL) |  | > 150 | 150 (≈ 61.1 µg/mL) |
| COC(=O)Cc1cccc(CNCCC2CCCCC2)c1 [B440, methyl 2-(3-(((2-cyclohexylethyl)amino)methyl)phenyl)acetate] |  |  | > 150 | > 150 |  | 150 (≈ 43.4 µg/mL) | > 150 |
| CC(CC1CCCCC1)NCc1cccc2ccn(C)c12 (stereo not drawn) [B441, 1-cyclohexyl-N-((1-methyl-1H-indol-7-yl)methyl)propan-2-amine hydrochloride] |  |  | 91 | > 150 |  | 33.4 | > 150 |
| CC(CC1CCCCC1)NCc1cccc2ccn(CCO)c12 (stereo not drawn) [B442, 2-(7-(((1-cyclohexylpropan-2-yl)amino)methyl)-1H-indol-1-yl)ethan-1-ol hydrochloride] |  |  | 150 | > 150 |  | 150 | > 150 |
| CNS(=O)(=O)Cc1ccccc1CNC(C)CC1CCCCC1 (stereo not drawn) [B445, 1-(2-(((1-cyclohexylpropan-2-yl)amino)methyl)phenyl)-N-methylmethanesulfonamide] |  |  | 4 (≈ 1.35 µg/mL) | 55 (≈ 18.6 µg/mL) |  | > 150 | 150 (≈ 50.8 µg/mL) |
| CCNS(=O)(=O)Cc1ccccc1CNC(C)CC1CCCCC1 (stereo not drawn) [B446, 1-(2-(((1-cyclohexylpropan-2-yl)amino)methyl)phenyl)-N-ethylmethanesulfonamide] |  |  | 7 (≈ 2.47 µg/mL) | 91 (≈ 32.1 µg/mL) |  | > 150 | > 150 |
| CC(CC1CCCCC1)NCc1ccccc1CS(=O)(=O)NCC(=O)O (stereo not drawn) [B448, ((2-(((1-cyclohexylpropan-2-yl)amino)methyl)benzyl)sulfonyl)glycine] |  |  | > 150 | > 150 |  | > 150 | > 150 |
| CC(CC1CCCCC1)NCc1ccccc1CS(=O)(=O)NC(=O)NC1CCCCC1 (stereo not drawn) [B449, N-(cyclohexylcarbamoyl)-1-(2-(((1-cyclohexylpropan-2-yl)amino)methyl)phenyl) methanesulfonamide] |  |  | 12 (≈ 5.4 µg/mL) | > 150 |  | > 150 | > 150 |
| CC1CCC(NC(=O)NS(=O)(=O)Cc2ccccc2CNC(C)CC2CCCCC2)CC1 (stereo not drawn) [B450, 1-(2-(((1-cyclohexylpropan-2-yl)amino)methyl)phenyl)-N-((4-methylcyclohexyl)carbamoyl)methanesulfonamide] |  |  | 150 (≈ 69.6 µg/mL) | > 150 |  | 150 (≈ 69.6 µg/mL) | > 150 |
| CC(CC1CCCCC1)NCc1ccccc1CCS(N)(=O)=O (stereo not drawn) [B451, 2-(2-(((1-cyclohexylpropan-2-yl)amino)methyl)phenyl)ethane-1-sulfonamide] |  |  | 4 (≈ 1.35 µg/mL) | 55 (≈ 18.6 µg/mL) |  | > 150 | 150 (≈ 50.8 µg/mL) |
| CC(CC1CCCCC1)NCc1ccccc1CS(=O)(=O)NCC(=O)NCC(=O)O (stereo not drawn) [B452, ((2-(((1-cyclohexylpropan-2-yl)amino)methyl)benzyl)sulfonyl)glycylglycine] |  |  | > 150 | > 150 |  | > 150 | > 150 |
| CC(CC1CCCCC1)NCc1ccccc1CS(=O)(=O)N[C@H]1C[C@@H](C(=O)O)C1 (stereo partly drawn) [B453, (1S,3S)-3-(((2-(((1-cyclohexylpropan-2-yl)amino)methyl)phenyl)methyl)sulfonamido)cyclobutane-1-carboxylic acid] |  |  | 20 (≈ 8.45 µg/mL) | > 150 |  | > 150 | > 150 |
| CC(CC1CCCCC1)NCc1ccccc1CS(=O)(=O)N[C@@H](C)C(=O)O (stereo partly drawn) [B454, ((2-(((1-cyclohexylpropan-2-yl)amino)methyl)benzyl)sulfonyl)-L-alanine] |  |  | 91 (≈ 36.1 µg/mL) | > 150 |  | > 150 | > 150 |
| CC(CC1CCCCC1)NCc1ccccc1CS(=O)(=O)N[C@H](C)C(=O)O (stereo partly drawn) [B455, ((2-(((1-cyclohexylpropan-2-yl)amino)methyl)benzyl)sulfonyl)-D-alanine] |  |  | 91 (≈ 36.1 µg/mL) | > 150 |  | > 150 | > 150 |
| CC(CC1CCCCC1)NCc1ccccc1CS(=O)(=O)N[C@H]1C[C@H](C(=O)O)C1 (stereo partly drawn) [B456, (1S,3S)-3-(((2-(((1-cyclohexylpropan-2-yl)amino)methyl)phenyl)methyl)sulfonamido)cyclobutane-1-carboxylic acid] |  |  | 33 (≈ 13.9 µg/mL) | > 150 |  | > 150 | > 150 |
| CC(CC1CCCCC1)NCc1ccccc1CS(=O)(=O)Nc1cccc(B(O)O)c1 (stereo not drawn) [B457, (3-(((2-(((1-cyclohexylpropan-2-yl)amino)methyl)phenyl)methyl)sulfonamido)phenyl)boronic acid] |  |  | < 1 | 33 (≈ 14.7 µg/mL) |  | > 55 | 33 (≈ 14.7 µg/mL) |
| CC(CC1CCCCC1)NCc1ccccc1OCc1ccccc1C(C)C (stereo not drawn) [B458, 1-cyclohexyl-N-(2-((2-isopropylbenzyl)oxy)benzyl)propan-2-amine] |  |  | 4 (≈ 1.52 µg/mL) | > 150 |  | 10 (≈ 3.8 µg/mL) | 20 (≈ 7.59 µg/mL) |
| COc1cccc(COc2ccccc2CNC(C)CC2CCCCC2)c1 (stereo not drawn) [B459, 1-cyclohexyl-N-(2-((3-methoxybenzyl)oxy)benzyl)propan-2-amine] |  |  | 2 (≈ 0.735 µg/mL) | 55 (≈ 20.2 µg/mL) |  | 17 (≈ 6.25 µg/mL) | 91 (≈ 33.4 µg/mL) |
| Cc1ccc(COc2ccccc2CNC(C)CC2CCCCC2)cc1 (stereo not drawn) [B460, 1-cyclohexyl-N-(2-((4-methylbenzyl)oxy)benzyl)propan-2-amine] |  |  | < 1 | 33 (≈ 11.6 µg/mL) |  | 10 (≈ 3.52 µg/mL) | 33 (≈ 11.6 µg/mL) |
| Cc1cccc(COc2ccccc2CNC(C)CC2CCCCC2)c1 (stereo not drawn) [B461, 1-cyclohexyl-N-(2-((3-methylbenzyl)oxy)benzyl)propan-2-amine] |  |  | < 1 | 33 (≈ 11.6 µg/mL) |  | 10 (≈ 3.52 µg/mL) | 33 (≈ 11.6 µg/mL) |
| CC(CC1CCCCC1)NCc1ccccc1OCc1ccccc1C1CC1 (stereo not drawn) [B462, 1-cyclohexyl-N-(2-((2-cyclopropylbenzyl)oxy)benzyl)propan-2-amine] |  |  | 4 (≈ 1.51 µg/mL) | > 150 |  | 10 (≈ 3.78 µg/mL) | 33 (≈ 12.5 µg/mL) |
| CC(CC1CCCCC1)NCc1ccccc1OCc1ccccc1Oc1ccccc1 (stereo not drawn) [B463, 1-cyclohexyl-N-(2-((2-phenoxybenzyl)oxy)benzyl)propan-2-amine] |  |  | 4 (≈ 1.72 µg/mL) | > 150 |  | 17 (≈ 7.3 µg/mL) | > 150 |
| CC1CCCC(CCN2Cc3ccccc3CC2=O)C1 (stereo not drawn) [B464, 2-(2-(3-methylcyclohexyl)ethyl)-1,4-dihydroisoquinolin-3(2H)-one] |  |  | 90 (≈ 24.4 µg/mL) | > 150 |  | 2 (≈ 0.543 µg/mL) | > 150 |
| CC1CCC(CC(C)NCc2ccccc2OCc2ccccc2F)CC1 (stereo not drawn) [B465, N-(2-((2-fluorobenzyl)oxy)benzyl)-1-(4-methylcyclohexyl)propan-2-amine] |  |  | 7 (≈ 2.59 µg/mL) | > 150 |  | 20 (≈ 7.39 µg/mL) | 90 (≈ 33.3 µg/mL) |
| CC(CC1CCCCC1)NCc1ccccc1CC(N)C(=O)O (stereo not drawn) [B466, 2-amino-3-(2-(((1-cyclohexylpropan-2-yl)amino)methyl)phenyl)propanoic acid] |  |  | > 150 | > 150 |  | > 55 | > 150 |

Source: patent publication US11261201B2 (priority 2018, dated 2022)
